Assay results as given in patent US8563067B2, “Extended shelf life and bulk transport of perishable organic liquids with low pressure carbon dioxide” (Cornell Research Foundation, Inc., priority 2004, dated 2013).

How the values were obtained:
[1] = pH of raw milk after CO2 pressure treatment (Example 1); assay type: physicochemical; details: for pH after treatment (6.6 before treatment): 6.1° C., 4 days; for pH of milk samples: 10° C.
Method: The pH of the treated and control milk samples (as measured at atmospheric pressure) was 6.6 to 5.9 at CO2 pressures≦516 kPa and 5.7 when treated at pressures≧516 kPa and 20° C. The pH of the treated and control milk samples, when treated at 10° C., was 5.5 at CO2 pressures≦516 kPa and 5.8 when treated at pressures≧516 kPa.

[2] = system: aerobic bacteria (SPC) in raw milk; assay: Standard Plate Count (SPC) of raw milk held under CO2 pressure, laboratory scale (Example 1); assay type: cell-based; details: for SPC increase / SPC reduction from initial SPC: 20° C.; for SPC reduction versus control: 1378 kPa
Description: The apparatus for pressurizing and holding raw milk samples is shown in schematic form in FIG. 9 and consisted of two 13-ml stainless steel 1.27-cm OD cylindrical vessels 60, 61; one vessel 60 was pressurized while the other served as a control 61. Compressed and filtered CO2 from a high-pressure tank 62 was used (Empire Airgas, Inc, Elmira, N.Y.). The system consisted of pressure regulator 63, a fine metering valve 64 (NUPRO Company, Willoughby, Ohio), an on-off valve 65 (Circle Seal, Anaheim, Calif.) and a check valve 66 (NUPRO Company, Willoughby, Ohio). The fine metering valve controlled gas flow such that the time to reach desired pressure was less than five seconds. The gas entered the vertically positioned treatment vessel 60 from the bottom and was thus bubbled through the milk until the set pressure was reached. A check valve 66 was placed immediately before the inlet to the pressure vessel to prevent the backward flow of the fluid milk into the gas inlet line. The outlet of the vessels consisted of a pressure gauge 67 and a high-pressure release valve 68 (High Pressure Equipment, Erie, Pa.). The release valve 68 was kept tightly closed during treatment. The control vessel 61 was closed off from both ends but not connected to the carbon dioxide line inlet and outlet lines.
Milk samples were mixed and 5 ml of milk added into the treatment and control vessels. The treatment vessel was connected to the apparatus and the control vessel closed off. Both vessels were placed in the water bath. When the desired temperatures were attained in both treatment and control vessels, CO2 was introduced through the bottom of the treatment vessel until the set pressure was reached. The CO2 pressure was maintained throughout the test period. When the desired time was reached, the CO2 inlet was turned off, the pressure release valve on the outlet line opened, and the pressure released in under one minute. After depressurization, the treatment and control vessels were removed from the water bath and their external surfaces were wiped dry, sanitized with 95% ethanol, detached from the apparatus and transferred into sterile containers for dilution and plating.
Short (<1 h) and longer term (1, 4 and 9 day) experiments were conducted. Raw milk (Northeast Dairy Herd Improvement Association, Inc.; Ithaca, N.Y.) in 5 ml aliquots was treated at each of the following combinations of CO2 pressure, temperature, and time (kPa/° C./min): 1378/5/15, 2757/5/5, 3446/5/5. In longer term studies, raw milk from the T&R Center was first stored at 6° C./48 h so that the SPC were at detectable levels at treatment initiation. […]
Raw milk from the T&R Center was monitored for changes in aerobic bacteria, gram-negative bacteria and total Lactobacillus spp. as follows: CO2 pressures of 0 (control), 68, 172, 344, 516 and 689 kPa, at 6.1° C. for 4-days. SPC, gram-negative bacteria and total Lactobacillus spp. were enumerated before (day 0) and after (day 4) treatment. Gram negative bacteria were enumerated on MacConkey Agar (Difco Manual, Becton Dickinson & Co., Sparks, Md.), a selective and differential media which can be used to discriminate between lactose fermenting and non-lactose fermenting gram-negative bacteria. Use of this media allows a one-step method of obtaining estimates of both coliform and non-coliform gram negative bacteria. Coliform bacteria may include species of Escherichia, Klebsiella and Enterobacter, potential pathogens and/or spoilage organisms. Non-coliform gram negative bacteria may include spoilage organisms such as pseudomonads or potential pathogens such as Salmonella spp. or Shigella spp. Numbers of Lactobacillus spp. populations were estimated using acidified (adjusted to pH 5.5 with glacial acetic acid) Lactobacillus MRS agar (Difco Manual, Becton Dickinson & Co., Sparks, Md.) after incubation under anaerobic conditions; suspect colonies were confirmed by gram stain. […]

SMILES: O=C=O [CO2, carbon dioxide]
- pH after treatment (6.6 before treatment) ([1]; 68 kPa): 5.9
- pH after treatment (6.6 before treatment) ([1]; 344 kPa): 5.8
- pH after treatment (6.6 before treatment) ([1]; 516 kPa): 5.5
- pH of treated milk (initial value 6.6) ([1]; 689 kPa, 4° C., end of days 4, 6, 8 and 9): 5.5
- pH of milk samples ([1]; CO2 pressures ≦516 kPa): 5.5
- pH of milk samples ([1]; pressures ≧516 kPa): 5.8
- pH of milk samples (measured at atmospheric pressure) ([1]; pressures ≧516 kPa, 20° C.): 5.7
- microbial growth compared to control milks ([2]; 68, 172, 344, 516 and 689 kPa, 6.1° C., 4 days): significantly reduced microbial growth
- SPC increase from initial SPC ([2]; 68 kPa, 6.1° C., 4 days): 1.28 log10 cfu/ml
- SPC increase ([2]; 68 kPa, 24 h): 1.07 log10 cfu/ml
- SPC increase from initial SPC ([2]; 172 kPa, 6.1° C., 4 days): 1.10 log10 cfu/ml
- SPC increase ([2]; 172 kPa, 24 h): 0.59 log10 cfu/ml
- decrease in counts (SPC) ([2]; 344 kPa CO2, 24 h, 10° C.): 0.31 log10 cfu/ml
- SPC increase from initial SPC ([2]; 344 kPa, 6.1° C., 4 days): 0.94 log10 cfu/ml
- SPC reduction from initial SPC ([2]; 344 kPa, 24 h): 0.39 log10
- decrease in counts (SPC) ([2]; 516 kPa CO2, 24 h, 10° C.): 0.56 log10 cfu/ml
- SPC of treated samples versus initial untreated samples ([2]; 516 kPa CO2 pressure, 6.1° C., 4 days): not significantly different
- SPC increase from initial SPC ([2]; 516 kPa, 6.1° C., 4 days): 0.82 log10 cfu/ml
- SPC reduction from initial SPC ([2]; 516 kPa, 24 h): 0.62 log10
- time for treated milk to reach SPC of 10^5 cfu/ml ([2]; 689 kPa CO2, 4° C.): 8 days
- decrease in counts (SPC) ([2]; 689 kPa CO2, 24 h, 10° C.): 0.71 log10 cfu/ml
- SPC counts, Treated, 4 Days ([2]; 689 kPa CO2 pressure, 4° C., 4 days, raw milk): 7.8 * 10^2b cfu/ml
- SPC counts, Treated, 6 Days ([2]; 689 kPa CO2 pressure, 4° C., 6 days, raw milk): 4.4 * 10^4c cfu/ml
- SPC counts, Treated, 8 Days ([2]; 689 kPa CO2 pressure, 4° C., 8 days, raw milk): 9.7 * 10^4d cfu/ml
- SPC counts, Treated, 9 Days ([2]; 689 kPa CO2 pressure, 4° C., 9 days, raw milk): 2.4 * 10^5e cfu/ml
- extension of treatment holding time compared to control ([2]; 689 kPa, 4° C.): at least four days
- treated milk SPC ([2]; 689 kPa, 4° C., 6 days): 4.64 log10 cfu/ml
- treated milk SPC ([2]; 689 kPa, 4° C., 8 days): 4.99 log10 cfu/ml
- treated milk SPC ([2]; 689 kPa, 4° C., 9 days): 5.37 log10 cfu/ml
- treated milk SPC ([2]; 689 kPa, 4° C., four days (from 3.48)): 2.89 log10 cfu/ml
- SPC lower than initial counts ([2]; 689 kPa, 6.1° C., 4 days): 0.89 log10 cfu/ml
- SPC lower than the controls ([2]; 689 kPa, 6.1° C., 4 days): 3.48 log10 cfu/ml
- difference in SPC between control and test milks ([2]; 689 kPa, 24 h, 10° C.): 2.68 log10 cfu/ml
- SPC reduction from initial SPC ([2]; 689 kPa, 24 h): 0.82 log10
- SPC reduction versus control ([2]; 15 min): 0.33 log10
- SPC reduction versus control ([2]; 30 min): 0.39 log10
- SPC of raw milk compared to untreated controls ([2]; all time-pressure combinations, even 68 kPa and 20° C.): significantly reduced
